Each structure is given as a SMILES string.

In the experiment the target is PD-1/PD-L1 (Homo sapiens (Human), UniProt Q9NZQ7). The experiment is described as follows: PD-1/PD-L1 Homogeneous Time-Resolved Fluorescence (HTRF) Binding Assay. As to conditions: recombinant human PD-1 (3 nM) and PD-L1 (10 nM), 25° C., PBS pH 7.4. The method, boiled down: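 Fc-tagged human PD-1 (25-167, 3 nM) and His-tagged PD-L1 (19-238, 10 nM) preincubated with inhibitor 40 min in PBS pH 7.4, 0.05% Tween-20, 0.1% BSA, 1% DMSO, 25 °C. Binding detected by HTRF (Eu anti-IgG/APC anti-His, 665/620 nm) after 60 min; IC50 from percent control activity.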
Chain of PD-1/PD-L1 (Q9NZQ7 19-238): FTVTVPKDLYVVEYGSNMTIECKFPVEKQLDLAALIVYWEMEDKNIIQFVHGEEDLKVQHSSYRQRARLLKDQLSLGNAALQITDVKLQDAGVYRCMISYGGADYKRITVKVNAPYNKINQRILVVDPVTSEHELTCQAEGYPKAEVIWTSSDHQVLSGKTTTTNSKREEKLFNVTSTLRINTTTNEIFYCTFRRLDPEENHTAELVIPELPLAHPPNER
Background: TR-FRET usually uses a lanthanide donor and a delayed reading to cut background.
By IC50 is commonly meant the concentration at which inhibition is half-maximal. On to `CNC(=O)[C@@H]1CCN(Cc2cc(C#N)c3oc(-c4cccc(-c5cccc(-n6cc7c(n6)CN(C(C)C)CC7)c5Cl)c4C)nc3c2)C1` [Example 103, (R)-1-((2-(2′-chloro-3′-(6-isopropyl-4,5,6,7-tetrahydro-2H-pyrazolo[3,4-c]pyridin-2-yl)-2-methylbiphenyl-3-yl)-7-cyanobenzo[d]oxazol-5-yl)methyl)-N-methylpyrrolidine-3-carboxamide], for which the IC50 is at most 10 nM. Turning to `Cc1c(-c2nc3cc(CN4CC[C@H](C(=O)O)C4)cc(C#N)c3o2)cccc1-c1cccc(Nc2nccc3cc(CN4CC[C@H](O)C4)cnc23)c1Cl` [Example 33, (S)-1-((2-(2′-chloro-3′-(3-(((S)-3-hydroxypyrrolidin-1-yl)methyl)-1,7-naphthyridin-8-ylamino)-2-methylbiphenyl-3-yl)-7-cyanobenzo[d]oxazol-5-yl)methyl)pyrrolidine-3-carboxylic acid], the half-maximal inhibitory concentration (IC50) was at most 10 nM. The figure for `Cc1c(-c2nc3cc(CNCCO)cc(C#N)c3o2)cccc1-c1cccc(-c2nc3c(s2)CN(C(C)C)CC3)c1C` [Example 120, 5-(((2-hydroxyethyl)amino)methyl)-2-(3′-(5-isopropyl-4,5,6,7-tetrahydrothiazolo[5,4-c]pyridin-2-yl)-2,2′-dimethyl-[1,1′-biphenyl]-3-yl)benzo[d]oxazole-7-carbonitrile] is at most 10 nM; for `Cc1c(Nc2nccc3cc(CN4CC[C@@H](O)C4)cnc23)cccc1-c1cccc(-c2nc3cc(CN4CC[C@H](CC(=O)O)C4)cc(C#N)c3o2)c1C` [Example 173, 2-((R)-1-((7-cyano-2-(3′-(3-(((R)-3-hydroxypyrrolidin-1-yl)methyl)-1,7-naphthyridin-8-ylamino)-2,2′-dimethylbiphenyl-3-yl)benzo[d]oxazol-5-yl)methyl)pyrrolidin-3-yl)acetic acid] it is at most 10 nM; for `Cc1c(COc2cc(OCc3cncc(C#N)c3)c(CN3CCCC[C@H]3C(=O)O)cc2Cl)cccc1-c1cccc(-c2nc3cc(CN4CC[C@@H](C(=O)O)C4)cc(Cl)c3o2)c1C` [Example 149, (S)-1-(4-((3′-(5-(((R)-3-carboxypyrrolidin-1-yl)methyl)-7-chlorobenzo[d]oxazol-2-yl)-2,2′-dimethyl-[1,1′-biphenyl]-3-yl)methoxy)-5-chloro-2-((5-cyanopyridin-3-yl)methoxy)benzyl)piperidine-2-carboxylic acid] it is 10 to 100 nM. The figure for `Cc1c(-c2nc3cc(CN4CC[C@@H](C(=O)O)C4)cc(C#N)c3o2)cccc1-c1cccc(Nc2cncc3nccnc23)c1Cl` [Example 15, (R)-1-((2-(2′-chloro-2-methyl-3′-(pyrido[3,4-b]pyrazin-8-ylamino)biphenyl-3-yl)-7-cyanobenzo[d]oxazol-5-yl)methyl)pyrrolidine-3-carboxylic acid] is at most 10 nM; for `Cc1c(NC(=O)c2nc3c(n2C)CCN(C2CC2)C3)cccc1-c1cccc(-c2nc3cc(CN4CC[C@H](C(=O)O)C4)cc(C#N)c3o2)c1C` [Example 39, (S)-1-((7-cyano-2-(3′-(5-cyclopropyl-1-methyl-4,5,6,7-tetrahydro-1H-imidazo[4,5-c]pyridine-2-carboxamido)-2,2′-dimethylbiphenyl-3-yl)benzo[d]oxazol-5-yl)methyl)pyrrolidine-3-carboxylic acid] it is at most 10 nM. As to `Cc1c(Nc2ncnc3cc(CNC[C@H](C)O)cnc23)cccc1-c1cccc(-c2nc3cc(CN4CC[C@@](C)(C(=O)O)C4)cc(C#N)c3o2)c1C` [Example 208, (R)-1-((7-cyano-2-(3′-(7-(((S)-2-hydroxypropylamino)methyl)pyrido[3,2-d]pyrimidin-4-ylamino)-2,2′-dimethylbiphenyl-3-yl)benzo[d]oxazol-5-yl)methyl)-3-methylpyrrolidine-3-carboxylic acid], the IC50 is at most 10 nM. Turning to `Cc1c(-c2nc3cc(CN4CC[C@@H](C(=O)NS(C)(=O)=O)C4)cc(C#N)c3o2)cccc1-c1cccc(-c2nc3c(s2)CN(C(C)C)CC3)c1C` [Example 238, (R)-1-((7-cyano-2-(3′-(5-isopropyl-4,5,6,7-tetrahydrothiazolo[5,4-c]pyridin-2-yl)-2,2′-dimethyl-[1,1′-biphenyl]-3-yl)benzo[d]oxazol-5-yl)methyl)-N-(methylsulfonyl)pyrrolidine-3-carboxamide], the IC50 is at most 10 nM. The figure for `COCC1(C(=O)O)CCN(Cc2cc(C#N)c3oc(-c4cccc(-c5cccc(Nc6nccc7cc(CN8CC[C@@H](O)C8)cnc67)c5C)c4C)nc3c2)C1` (stereo partly drawn) [Example 185, 1-((7-cyano-2-(3′-(3-(((R)-3-hydroxypyrrolidin-1-yl)methyl)-1,7-naphthyridin-8-ylamino)-2,2′-dimethylbiphenyl-3-yl)benzo[d]oxazol-5-yl)methyl)-3-(methoxymethyl)pyrrolidine-3-carboxylic acid] is at most 10 nM.

With `Cc1c(Nc2nccc3cc(CN4CC[C@@H](O)C4)cnc23)cccc1-c1cccc(-c2nc3cc(CN[C@H]4CC[C@@H](C(=O)O)CC4)cc(C#N)c3o2)c1C` [Example 172, cis-4-((7-cyano-2-(3′-(3-(((R)-3-hydroxypyrrolidin-1-yl)methyl)-1,7-naphthyridin-8-ylamino)-2,2′-dimethylbiphenyl-3-yl)benzo[d]oxazol-5-yl)methylamino) cyclohexanecarboxylic acid], the IC50 is at most 10 nM. Take `CC[C@@H](CO)NCc1cnc2c(Nc3cccc(-c4cccc(-c5nc6cc(CN7CC[C@@](C)(C(=O)O)C7)cc(C#N)c6o5)c4C)c3C)nccc2c1` [Example 194, (R)-1-((7-cyano-2-(3′-(3-(((S)-1-hydroxybutan-2-ylamino)methyl)-1,7-naphthyridin-8-ylamino)-2,2′-dimethylbiphenyl-3-yl)benzo[d]oxazol-5-yl)methyl)-3-methylpyrrolidine-3-carboxylic acid]: the IC50 is at most 10 nM. The figure for `Cc1c(-c2nc3cc(CN4CC[C@@H](C(=O)O)C4)cc(C#N)c3o2)cccc1-c1cccc(-c2nc3c(s2)CN(C(=O)CN2CCN(C)CC2)C3)c1C` [Example 108, (R)-1-((7-cyano-2-(2,2′-dimethyl-3′-(5-(2-(4-methylpiperazin-1-yl)acetyl)-5,6-dihydro-4H-pyrrolo[3,4-d]thiazol-2-yl)biphenyl-3-yl)benzo[d]oxazol-5-yl)methyl)pyrrolidine-3-carboxylic acid] is at most 10 nM; for `Cc1c(-c2nc3cc(CN4CC[C@@](C)(C(=O)O)C4)cc(C#N)c3o2)cccc1-c1cccc(NC(=O)c2nc3c(n2C)CN(C)C3)c1Cl` [Example 158, (R)-1-((2-(2′-chloro-3′-(1,5-dimethyl-1,4,5,6-tetrahydropyrrolo[3,4-d]imidazole-2-carboxamido)-2-methylbiphenyl-3-yl)-7-cyanobenzo[d]oxazol-5-yl)methyl)-3-methyl pyrrolidine-3-carboxylic acid] it is at most 10 nM; for `Cc1c(-c2nc3c(o2)CN(C(=O)[C@@H]2CCCN2C)C3)cccc1-c1cccc(-c2nc3cc(CN4CC[C@@H](C(=O)O)C4)cc(C#N)c3o2)c1C` [Example 124, (R)-1-((7-cyano-2-(2,2′-dimethyl-3′-(5-(methyl-L-prolyl)-5,6-dihydro-4H-pyrrolo[3,4-d]oxazol-2-yl)-[1,1′-biphenyl]-3-yl)benzo[d]oxazol-5-yl)methyl)pyrrolidine-3-carboxylic acid] it is at most 10 nM.

For the origin of these results see patent US10308644B2, “Heterocyclic compounds as immunomodulators” (Incyte Corporation, priority 2016, dated 2019).
